Test results as given in the supplement of paper PMC8617591.

Legend:
[1] = tested on: Mycobacterium tuberculosis Erdman (autoluminescent); experiment: total FIC50 (Loewe) at 50% inhibition, three-drug combination (log2); higher = more antagonistic
Protocol: (§1)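 DiaMOND equipotent three-drug combination dose responses (10 doses, 1.5- or 2-fold spacing, centred on IC90) against autoluminescent M. tuberculosis Erdman in 8 in vitro models. Read-out is OD600, or luminescence for the intracellular and dormancy models, normalised to untreated wells. Hill-fit Einf, AUC25 and GRinf are potency metrics; FIC50 and FIC90 are total Loewe fractional inhibitory concentrations as log2 (negative = synergy).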

[2] = tested on: Mycobacterium tuberculosis Erdman (autoluminescent); experiment: total FIC90 (Loewe) at 90% inhibition, three-drug combination (log2); higher = more antagonistic
Protocol: as §1

[3] = tested on: Mycobacterium tuberculosis Erdman (autoluminescent); experiment: Einf, fitted maximum growth inhibition of three-drug combination (fraction); higher = stronger maximal inhibition
Protocol: as §1

[4] = tested on: Mycobacterium tuberculosis Erdman (autoluminescent); experiment: AUC25, normalised area under dose response up to IC25 (three-drug combination) (fraction (0-1)); higher = more potent at low dose
Protocol: as §1

[5] = tested on: Mycobacterium tuberculosis Erdman (autoluminescent); experiment: GRinf, maximum normalised growth rate inhibition (three-drug combination) (unitless (-1 to 1)); higher = less effect (negative = killing)
Protocol: as §1

[6] = in vitro model: acidic pH 5.7, time point: constant (~7 days, model-specific)
[7] = in vitro model: acidic pH 5.7, time point: terminal (~4-5 doublings, model-specific)
[8] = in vitro model: butyrate, time point: constant (~7 days, model-specific)
[9] = in vitro model: butyrate, time point: terminal (~4-5 doublings, model-specific)
[10] = in vitro model: cholesterol 0.05 mM, time point: constant (~7 days, model-specific)
[11] = in vitro model: cholesterol 0.05 mM, time point: terminal (~4-5 doublings, model-specific)
[12] = in vitro model: cholesterol-high 0.2 mM, time point: constant (~7 days, model-specific)
[13] = in vitro model: cholesterol-high 0.2 mM, time point: terminal (~4-5 doublings, model-specific)
[14] = in vitro model: dormancy (butyrate + nitrate, low O2), time point: constant (~7 days, model-specific)
[15] = in vitro model: dormancy (butyrate + nitrate, low O2), time point: terminal (~4-5 doublings, model-specific)
[16] = in vitro model: standard 7H9 glycerol, time point: constant = terminal
[17] = in vitro model: valerate, time point: constant (~7 days, model-specific)
[18] = in vitro model: valerate, time point: terminal (~4-5 doublings, model-specific)
[19] = in vitro model: intracellular J774, time point: constant = terminal

CC[C@@H](CO)NCCN[C@@H](CC)CO [ethambutol] + COc1c(N2C[C@@H]3CCCN[C@@H]3C2)c(F)cc2c(=O)c(C(=O)O)cn(C3CC3)c12 [moxifloxacin] + CO[C@H]1/C=C/O[C@@]2(C)Oc3c(C)c(O)c4c(O)c(c(/C=N/N5CCN(C)CC5)c(O)c4c3C2=O)NC(=O)/C(C)=C\C=C\[C@H](C)[C@H](O)[C@@H](C)[C@@H](O)[C@@H](C)[C@H](OC(C)=O)[C@@H]1C [rifampicin]
total FIC50 [1, 6]: 0.27
total FIC50 [1, 7]: 0.591
total FIC50 [1, 8]: 0.419
total FIC50 [1, 9]: 0.334
total FIC50 [1, 10]: 0.0825
total FIC50 [1, 11]: 0.896
total FIC50 [1, 12]: 1.01
total FIC50 [1, 13]: 1.13
total FIC50 [1, 14]: -0.35
total FIC50 [1, 15]: 0.268
total FIC50 [1, 16]: 0.166
total FIC50 [1, 17]: 0.576
total FIC50 [1, 18]: 0.645
total FIC90 [2, 7]: -0.139
total FIC90 [2, 9]: -0.296
total FIC90 [2, 13]: 1.05
total FIC90 [2, 15]: -0.495
total FIC90 [2, 19]: -1.82
total FIC90 [2, 18]: -0.611
Einf [3, 6]: 0.842
Einf [3, 7]: 0.969
Einf [3, 8]: 0.924
Einf [3, 9]: 0.966
Einf [3, 10]: 0.602
Einf [3, 11]: 0.876
Einf [3, 12]: 0.937
Einf [3, 13]: 1
Einf [3, 14]: 0.838
Einf [3, 15]: 0.985
Einf [3, 19]: 0.965
Einf [3, 16]: 0.861
Einf [3, 17]: 0.867
Einf [3, 18]: 0.93
AUC25 [4, 6]: 0.0728
AUC25 [4, 7]: 0.033
AUC25 [4, 8]: 0.0797
AUC25 [4, 9]: 0.0647
AUC25 [4, 10]: 0.104
AUC25 [4, 11]: 0.082
AUC25 [4, 12]: 0.0425
AUC25 [4, 13]: 0.0582
AUC25 [4, 14]: 0.0959
AUC25 [4, 15]: 0.0588
AUC25 [4, 16]: 0.0299
AUC25 [4, 17]: 0.0379
AUC25 [4, 18]: 0.0266
GRinf [5, 6]: 0.00792
GRinf [5, 7]: -0.0608
GRinf [5, 8]: -0.0218
GRinf [5, 9]: -0.0188
GRinf [5, 10]: 0.0718
GRinf [5, 11]: 0.198
GRinf [5, 12]: -0.354
GRinf [5, 13]: -0.753
GRinf [5, 14]: 0.346
GRinf [5, 15]: -0.0843
GRinf [5, 19]: -0.353
GRinf [5, 16]: 0.231
GRinf [5, 17]: 0.0142
GRinf [5, 18]: 0.0403

CC[C@@H](CO)NCCN[C@@H](CC)CO [ethambutol] + COc1c(N2C[C@@H]3CCCN[C@@H]3C2)c(F)cc2c(=O)c(C(=O)O)cn(C3CC3)c12 [moxifloxacin] + NC(=O)c1cnccn1 [pyrazinamide]
total FIC50 [1, 6]: 0.429
total FIC50 [1, 7]: 0.98
total FIC50 [1, 8]: 0.345
total FIC50 [1, 9]: 0.477
total FIC50 [1, 11]: 0.703
total FIC50 [1, 12]: 1.02
total FIC50 [1, 13]: 1.29
total FIC50 [1, 14]: -0.23
total FIC50 [1, 15]: 0.189
total FIC50 [1, 17]: 0.599
total FIC50 [1, 18]: 0.696
total FIC90 [2, 7]: 0.0827
total FIC90 [2, 9]: 0.431
total FIC90 [2, 13]: 1.24
total FIC90 [2, 15]: -0.144
total FIC90 [2, 19]: -0.596
total FIC90 [2, 18]: -0.119
Einf [3, 6]: 0.781
Einf [3, 7]: 0.959
Einf [3, 8]: 0.926
Einf [3, 9]: 0.967
Einf [3, 10]: 0.683
Einf [3, 11]: 0.8
Einf [3, 12]: 0.962
Einf [3, 13]: 1
Einf [3, 14]: 0.816
Einf [3, 15]: 0.979
Einf [3, 19]: 0.98
Einf [3, 16]: 0.966
Einf [3, 17]: 0.884
Einf [3, 18]: 0.945
AUC25 [4, 6]: 0.106
AUC25 [4, 7]: 0.0713
AUC25 [4, 8]: 0.108
AUC25 [4, 9]: 0.0814
AUC25 [4, 10]: 0.12
AUC25 [4, 11]: 0.135
AUC25 [4, 12]: 0.0703
AUC25 [4, 13]: 0.0603
AUC25 [4, 14]: 0.0861
AUC25 [4, 15]: 0.0923
AUC25 [4, 16]: 0.0574
AUC25 [4, 17]: 0.0872
AUC25 [4, 18]: 0.0506
GRinf [5, 6]: -0.213
GRinf [5, 7]: -0.294
GRinf [5, 8]: 0.001
GRinf [5, 9]: -0.00667
GRinf [5, 10]: -0.365
GRinf [5, 11]: -0.21
GRinf [5, 12]: -0.373
GRinf [5, 13]: -0.587
GRinf [5, 14]: 0.46
GRinf [5, 15]: -0.107
GRinf [5, 19]: -0.497
GRinf [5, 16]: -0.145
GRinf [5, 17]: -0.169
GRinf [5, 18]: -0.037
